According to patent US4845194A, “Glycopeptide recovery process” (Eli Lilly and Company, priority 1987, dated 1989):

Legend:
Experiment in all cases: In vivo antimicrobial activity in experimentally infected mice (ED50)
Staphylococcus aureus = conditions: for ED50 Value Staphylococcus aureus: mg/kg × 2, doses administered subcutaneously to mice 1 and 4 hours postinfection, dose protecting 50% of animals
Procedure: (§1) The A82846 antibiotics have shown in vivo antimicrobial activity against experimentally-induced infections in laboratory animals. When two doses of test compound were administered to mice experimentally infected with the test organism, the activity observed was measured as an ED50 value [effective dose in mg/kg to protect 50% of the test animals: see Warren Wick, et al., J. Bacteriol. 81, 233-235 (1961)].
(§2) ^a mg/kg × 2; doses administered subcutaneously to mice 1 and 4

Streptococcus pneumoniae = conditions: for ED50 Value Streptococcus pneumoniae: mg/kg × 2, doses administered subcutaneously to mice 1 and 4 hours postinfection, dose protecting 50% of animals
Procedure: as §1, §2

Streptococcus pyogenes = conditions: for ED50 Value Streptococcus pyogenes: mg/kg × 2, doses administered subcutaneously to mice 1 and 4 hours postinfection, dose protecting 50% of animals
Procedure: as §1, §2

| SMILES | ED50 (Staphylococcus aureus; Staphylococcus aureus, sc, read-out: ED50 Value Staphylococcus aureus) [mg/kg] | ED50 (Streptococcus pneumoniae; Streptococcus pneumoniae, sc, read-out: ED50 Value Streptococcus pneumoniae) [mg/kg] | ED50 (Streptococcus pyogenes; Streptococcus pyogenes, sc, read-out: ED50 Value Streptococcus pyogenes) [mg/kg] | ED50 Value Staphylococcus aureus (Staphylococcus aureus) [mg/kg] | ED50 Value Streptococcus pneumoniae (Streptococcus pneumoniae) [mg/kg] | ED50 Value Streptococcus pyogenes (Streptococcus pyogenes) [mg/kg] |
| --- | --- | --- | --- | --- | --- | --- |
| CN[C@H](CC(C)C)C(=O)N[C@H]1C(=O)N[C@@H](CC(N)=O)C(=O)N[C@H]2C(=O)N[C@H]3C(=O)N[C@H](C(=O)N[C@H](C(=O)O)c4cc(O)cc(O)c4-c4cc3ccc4O)[C@H](O)c3ccc(c(Cl)c3)Oc3cc2cc(c3O[C@@H]2O[C@H](CO)[C@@H](O)[C@H](O)[C@H]2O[C@H]2C[C@](C)(N)[C@H](O)[C@H](C)O2)Oc2ccc(cc2Cl)[C@H]1O [Vancomycin, vancomycin, reference compound] | 1.3 | 1.52 | 0.72 | – | – | – |
| CN[C@@H](CC(C)C)C(=O)N[C@H]1C(=O)N[C@H](CC(N)=O)C(=O)N[C@H]2C(=O)N[C@H]3C(=O)N[C@@H](C(=O)NC(C(=O)O)c4cc(O)cc(O)c4-c4cc3ccc4O)[C@@H](O[C@H]3C[C@](C)(N)[C@H](O)[C@@H](C)O3)c3ccc(cc3)Oc3cc2cc(c3O[C@H]2O[C@@H](CO)[C@@H](O)[C@H](O)[C@@H]2O[C@H]2C[C@](C)(N)[C@H](O)[C@@H](C)O2)Oc2ccc(cc2)[C@@H]1O (stereo partly drawn) [Compound A82846C] | – | – | – | 2.18 | 5.87 | 2.71 |
| CN[C@H](CC(C)C)C(=O)N[C@H]1C(=O)N[C@@H](CC(N)=O)C(=O)N[C@H]2C(=O)N[C@H]3C(=O)N[C@H](C(=O)N[C@@H](C(=O)O)c4cc(O)cc(O)c4-c4cc3ccc4O)[C@H](O[C@@H]3C[C@@](C)(N)[C@H](O)[C@@H](C)O3)c3ccc(cc3)Oc3cc2cc(c3O[C@H]2O[C@@H](CO)[C@H](O)[C@@H](O)[C@@H]2O[C@H]2C[C@](C)(N)[C@@H](O)[C@H](C)O2)Oc2ccc(cc2Cl)[C@H]1O [Compound A82846A] | – | – | – | 0.19 | 0.17 | 0.19 |
| CN[C@H](CC(C)C)C(=O)N[C@H]1C(=O)N[C@@H](CC(N)=O)C(=O)N[C@H]2C(=O)N[C@H]3C(=O)N[C@H](C(=O)N[C@H](C(=O)O)c4cc(O)cc(O)c4-c4cc3ccc4O)[C@H](O[C@H]3C[C@](C)(N)[C@@H](O)[C@H](C)O3)c3ccc(c(Cl)c3)Oc3cc2cc(c3O[C@@H]2O[C@H](CO)[C@@H](O)[C@H](O)[C@H]2O[C@H]2C[C@](C)(N)[C@@H](O)[C@H](C)O2)Oc2ccc(cc2Cl)[C@H]1O [Compound A82846B] | – | – | – | 0.19 | 0.18 | 0.20 |
